Measured values published in patent US6875750B1, “Aziridine compounds and methods of making and using them” (Max-Planck-Gesellschaft zur Foerderung der Wissenschaften …, priority 1998, dated 2005).

Key:
[1] = target: T1, N6-adenine DNA methyltransferase M•TaqI (Thermus aquaticus, UniProt P14385); experiment: Enzyme reaction: M•TaqI-catalyzed coupling of cofactor with duplex oligodeoxynucleotide 3•4, followed by anion exchange chromatography; assay type: biochemical; settings: duplex 3•4 10 μM, M•TaqI 10 μM, pH 6.0, 37°C
T1 construct: made in house
T1 sequence (P14385 whole entry): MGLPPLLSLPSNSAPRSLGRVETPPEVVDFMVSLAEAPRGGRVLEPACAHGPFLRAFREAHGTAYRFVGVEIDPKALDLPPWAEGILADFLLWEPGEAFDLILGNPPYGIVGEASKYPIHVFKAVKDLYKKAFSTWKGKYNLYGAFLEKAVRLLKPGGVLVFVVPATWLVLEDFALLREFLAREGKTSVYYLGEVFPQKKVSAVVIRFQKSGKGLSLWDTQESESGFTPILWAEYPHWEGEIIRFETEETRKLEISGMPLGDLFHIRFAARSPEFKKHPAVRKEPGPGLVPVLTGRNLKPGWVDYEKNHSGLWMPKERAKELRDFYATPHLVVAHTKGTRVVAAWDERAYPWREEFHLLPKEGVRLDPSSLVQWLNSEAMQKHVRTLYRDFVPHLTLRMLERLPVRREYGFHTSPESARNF
Protocol: The DNA methyltransferase M•TaqI free of cofactor was prepared as described before (B. Holz, S. Klimasauskas, S. Serva, E. Weinhold, Nucleic Acids Res. 1998, 26, 1076-1083). The enzyme-catalyzed reaction was carried out in a mixture (500 μl) of M•TaqI (5 nmol, 10 μM), duplex oligodeoxynucleotide 3.4 (5 nmol, 10 μM), compound 2 (500 nmol, 1 mM), Tris acetate (20 mM, pH 6,0), potassium acetate (50 mM), magnesium acetate (10 mM) and Triton X-100 (0.01%) at 37°C. The progress of the reaction was monitored by anion exchange chromatography. Aliquots (50 μl) of the reaction mixture were withdrawn after different incubation times, mixed with an urea solution (100 μl, 6 M) and injected onto an anion exchange column (Poros 10 HQ, 10 μm, 4.6×100 mm, PerSeptive Biosystems, Germany). Compounds were eluted with aqueous potassium chloride (0.5 M for 5 min, followed by a linear gradient to 1 M in 30 min, 4 ml/min) in Tris chloride buffer (10 mM, pH 7.6).
The enzyme-catalyzed reaction was carried out in a mixture (500 μl) of cofactor free M-Taql (5 nmol, 10 μM), duplex oligodeoxynucleotide 3•4 (5 nmol, 10 μM), compound 9 (10 nmol, 20 μM), Tris acetate (20 mM, pH 6.0), potassium acetate (50 mM), magnesium acetate (10 mM) and Triton X-100 (0,01%) at 37° C. The progress of the reaction was monitored by anion exchange chromatography (Poros 10 HQ, 10 μm, 4,6×10 mm, PerSeptive Biosystems, Germany). Compounds were eluted with aqueous potassium chloride (0.2 M for 5 min, followed by a linear gradient to 0.5 M in 5 min and to 1 M in 30 min) in Tris chloride buffer (10 mM, pH 7.0). Complete conversion to a new product (containing DNA and protein) with a retention time of 7.9 min was observed after 15 h. […] Then, a solution (4 μl) of proteinase K (31 mg/ml), Tris chloride (50 mM, pH 8.0) and calcium chloride (1 mM) was added, and the reaction mixture was incubated at 37° C. for 1 h. The proteolytic fragmentation was monitored by anion exchange chromatography as described above. […]

[2] = target: T2, C5-cytosine DNA methyltransferase M•HhaI (Haemophilus parahaemolyticus, UniProt P05102); experiment: Enzyme reaction: M•HhaI-catalyzed coupling of cofactor with duplex oligodeoxynucleotide 6•7, followed by anion exchange chromatography; assay type: biochemical, Haemophilus haemolyticus; settings: duplex 6•7 10 μM, M•HhaI 10 μM, compound 2 1 mM, pH 7.4, 25°C
T2 construct: made in house
T2 sequence (P05102 1-327): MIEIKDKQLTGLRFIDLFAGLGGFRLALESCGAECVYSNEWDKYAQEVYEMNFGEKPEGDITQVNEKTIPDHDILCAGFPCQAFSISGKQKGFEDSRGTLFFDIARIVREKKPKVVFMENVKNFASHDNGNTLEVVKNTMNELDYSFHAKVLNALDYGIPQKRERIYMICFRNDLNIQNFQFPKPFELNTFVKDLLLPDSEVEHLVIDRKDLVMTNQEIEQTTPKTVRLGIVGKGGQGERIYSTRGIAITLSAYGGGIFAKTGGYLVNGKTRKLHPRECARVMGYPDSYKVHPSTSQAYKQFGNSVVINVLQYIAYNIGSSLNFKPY
Protocol: The DNA methyltransferase M•HhaI free of cofactor was prepared as described before (B. Holz, S. Klimasauskas, S. Serva, E. Weinhold, Nucleic Acids Res. 1998, 26, 1076-1083). The enzyme-catalyzed reaction was carried out in a mixture (500 μl) of M•HhaI (5 nmol, 10 μM), duplex oligodeoxynucleotide 6•7 (5 nmol, 10 μM), compound 2 (500 nmol, 1 mM), Tris chloride (10 mM, pH 7.4), sodium chloride (50 mM), EDTA (0,5 mM) and Triton X-100 (0.01%) at 25° C. The progress of the reaction was monitored by anion exchange chromatography. Aliquots (50 μl) of the reaction mixture were withdrawn after different incubation times, and injected onto an anion exchange column (Poros 10 HQ, 10 μm, 4.6×100 mm, PerSeptive Biosystems, Germany). Compounds were eluted with aqueous potassium chloride (0 M for 5 min, followed by a linear gradient to 0.5 M in 5 min and to 1 M in 30 min, 4 ml/min) in Tris chloride buffer (20 mM, pH. 7.6).

[3] = target: T1, N6-adenine DNA methyltransferase M•TaqI; experiment: Fluorescent labeling of plasmid DNA (pUC19) using M•TaqI; assay type: biochemical; settings: M•TaqI 133 nM, pUC19 28 nM, compound 9 20 μM
Protocol: The enzyme-catalyzed labeling reaction was carried out in a mixture (500 μl) of cofactor free M•TaqI (133 nM), pUC19 DNA (28 nM, 4 recognition sites for M•TaqI), compound 9 (20 μM), Tris acetate (20 mM, pH 6,0), potassium acetate (50 mM), magnesium, acetate (10 mM) and Triton X-100 (0,01%) at 65° C. The progress of the reaction was monitored by anion exchange chromatography (NUCLEOGEN DEAE 4000-7, 7 μm, 125×6,2 mm, Machery-Nagel, Düren, Germany). Compounds were eluted with aqueous potassium chloride (0.2 M for 5 min followed by a linear gradient to 1 M in 30 min) in Tris chloride buffer (10 mM, pH 7.0) containing acetonitrile (20%). The chromatograms of the anion exchange chromatography after different incubation times are shown in FIG. 6 (A: UV detection at 260 nm; B: fluorescence detection). The delay between the observed UV absorption and the fluorescence is due to a spatial separation of the UV detector and the fluorescence detector. The labeling reaction yielding fluorescent pUC19 was completed after 8 h.

[4] = target: T2, C5-cytosine DNA methyltransferase M•HhaI; experiment: Fluorescent labeling of plasmid DNA (pUC19) using M•HhaI; assay type: biochemical, Haemophilus haemolyticus; settings: M•HhaI 730 nM, pUC19 40 nM, compound 9 20 μM, pH 6.85, 37°C, 20 h
Protocol: The enzyme-catalyzed labeling reaction was carried out in a mixture (100 μl) of M-HhaI (730 nM), pUC19 DNA (40 nM, 17 recognition sites for M•HhaI), compound 9 (20 μM), Tris chloride (10 mM, pH 6.85), sodium chloride (50 mM), EDTA (0,5 mM) and P-mercaptoethanol (2 mM) at 37° C. A parallel control experiment was performed without M•HhaI. Aliquots of both incubations after 20 h reaction time were analyzed by anion exchange chromatography as described above (see example 2, 3.1). The obtained chromatograms are shown in FIG. 8 (A: UV detection at 260 nm; B: fluorescence detection).

SMILES	M•TaqI-catalyzed coupling of the cofactor with DNA ([1]; compound 2 1 mM)	M•HhaI-catalyzed coupling of the cofactor to duplex oligodeoxynucleotide 6•7 [2]	coupling reaction of the fluorescent cofactor with DNA catalyzed by M•TaqI ([1]; compound 9 20 μM)	time to complete conversion of duplex 3•4 to new product (containing DNA and protein) ([1]; compound 9 20 μM) [h]	fluorescence signal of pUC19 in anion exchange chromatography after labeling with M•TaqI ([3]; 65°C, different incubation times)	time to completion of the labeling reaction yielding fluorescent pUC19 ([3]; pH 6.0, 65°C) [h]	cofactor function in M•HhaI-catalyzed fluorescent labeling of pUC19 [4]
Nc1ncnc2c1ncn2[C@@H]1O[C@H](CN2CC2)[C@@H](O)[C@H]1O [Compound 2, N-Adenosylaziridine]	quantitative, sequence- and base-specific	quantitative	–	–	–	–	–
CN(C)c1cccc2c(S(=O)(=O)NCCCCNc3nc4c(N)ncnc4n3[C@@H]3O[C@H](CN4CC4)C(O)[C@@H]3O)cccc12 (stereo partly shown) [Compound 9, 8-Amino[1″-(N″-dansyl)-4″-aminobutyl]-5′-(1-aziridinyl)-5′-deoxy adenosine]	–	–	quantitative and base-specific	15	increase of the fluorescence signal with the incubation time	8	function as a cofactor for M•HhaI
